Results taken from patent US7910622B2, “Modulation of bacterial quorum sensing with synthetic ligands” (Wisconsin Alumni Research Foundation, priority 2007, dated 2011).
“And” between values parts separate entries of the source, which are not always exact repeats. Equal entries are not always repeated.

Tests used:
[1] = system: wild-type V. fischeri ES114; test: Luminescence dose response in wild-type V. fischeri ES114; type: cell-based, Vibrio fischeri; conditions: relative to OHHL
Protocol: (§1) Vibrio fischeri assay procedures. For primary agonism assays, an appropriate amount of concentrated control or PHL (11) stock solution, to give a final concentration of 200 μM, was added to wells in a 96-well multititer plate. An overnight culture of V. fischeri ES114 (WT, Δ-luxI or Δ-luxR) was diluted 1:10 with LBS medium. A-200 μL portion of the diluted culture was added to each well of the plate. Plates were grown at RT with shaking (200 rpm) until the OD600=0.35-0.4 (4-6 h). Luminescence then was measured and normalized to cell density per well. […] Similar methods were used for dose response assays, except the concentrations of controls and PHLs 11 used were between 0.02 and 2×10^5 nM. All assays were performed in triplicate. IC50 and EC50 values were calculated using GraphPad Prism software using a sigmoidal curve fit.

[2] = system: V. fischeri ES114 (Δ-luxR); test: Luminescence assay in Δ-luxR derivative of V. fischeri ES114; type: cell-based, Vibrio fischeri
Protocol: as §1

LuxR [3] = biological target: T1, LuxR (Aliivibrio fischeri, UniProt P35327); test: cell-based; type: cell-based, Vibrio fischeri; conditions: for V. fischeri-LuxR Inhibition [%]: 5 μM synthetic ligand against 5 μM OHHL; for Inhibition (%): V. fischeri-LuxR, Library C primary antagonism screen
T1 construct: a Δ-luxI derivative of V. fischeri ES114, in which the native lux operon behaves as the bioluminescent reporter; endogenous in cells; host or cells: V. fischeri ES114 (Δ-luxI)
T1 sequence (P35327 whole entry): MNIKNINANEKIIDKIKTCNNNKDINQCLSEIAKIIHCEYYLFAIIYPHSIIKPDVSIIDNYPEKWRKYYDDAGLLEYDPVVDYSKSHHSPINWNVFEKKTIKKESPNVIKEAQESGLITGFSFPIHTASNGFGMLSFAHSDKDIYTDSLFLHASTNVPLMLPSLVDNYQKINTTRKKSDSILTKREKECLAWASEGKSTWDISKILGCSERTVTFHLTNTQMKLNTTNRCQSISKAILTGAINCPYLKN
How it was run: (§2)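 Whole-cell luminescence reporter in V. fischeri ES114 (WT, Δ-luxI or Δ-luxR) or E. coli, overnight cultures diluted 1:10 and grown with compound at RT (E. coli 30° C) to OD600 0.35-0.4 (4-6 h). Luminescence normalized to cell density, triplicates; EC50/IC50 from sigmoidal fit.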

LuxR [4] = biological target: T1, LuxR; test: cell-based; set-up: species or system Vibrio fischeri; conditions: for EC50: LuxR EC50, V. fischeri ES114 (Δ-luxI); for activation at 200 µM: read-out: V. fischeri-LuxR Activation [%], 200 μM ligand; for activation at 200 µM / V. fischeri-LuxR Activation [%]: V. fischeri ES114 (Δ-luxI), normalized to OHHL; for Activation (%): V. fischeri-LuxR, Library C primary agonism screen; for V. fischeri-LuxR Activation [%]: 200 μM ligand
How it was run: as §2

Euprymna scolopes squid = test: Preliminary experiments in squid / invertebrate model systems (tolerance, activity in vivo)
LasR [5] = biological target: T2, LasR (Pseudomonas aeruginosa, UniProt P25084); test: cell-based; conditions: for Activation (%): E. coli-LasR, Library C primary agonism screen; for E. coli-LasR Activation [%]: 5 μM ligand
T2 construct: expressed in transfected cells; host or cells: E. coli DH5α (pJN105L pSC11), arabinose-induced
T2 sequence (P25084 whole entry): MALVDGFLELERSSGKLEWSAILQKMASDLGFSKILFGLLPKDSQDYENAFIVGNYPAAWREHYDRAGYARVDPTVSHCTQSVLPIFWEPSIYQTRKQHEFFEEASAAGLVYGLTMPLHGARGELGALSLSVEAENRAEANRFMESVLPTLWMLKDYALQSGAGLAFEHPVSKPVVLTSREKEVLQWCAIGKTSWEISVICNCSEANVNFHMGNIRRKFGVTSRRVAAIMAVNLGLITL
How it was run: (§3)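 E. coli DH5α carrying pJN105L/pSC11 grown to OD600 0.3, LasR expression induced with arabinose (4 mg/mL), then incubated with AHLs at 37 °C to OD600 0.45. LasR activity read by β-galactosidase reporter assay; IC50/EC50 from sigmoidal dose-response fits.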

[6] = biological target: QscR:DNA binding (PA1897 promoter) (Pseudomonas aeruginosa, UniProt G3XD77); conditions: EMSA
QscR:DNA binding (PA1897 promoter), sequence (G3XD77 entry or part of it): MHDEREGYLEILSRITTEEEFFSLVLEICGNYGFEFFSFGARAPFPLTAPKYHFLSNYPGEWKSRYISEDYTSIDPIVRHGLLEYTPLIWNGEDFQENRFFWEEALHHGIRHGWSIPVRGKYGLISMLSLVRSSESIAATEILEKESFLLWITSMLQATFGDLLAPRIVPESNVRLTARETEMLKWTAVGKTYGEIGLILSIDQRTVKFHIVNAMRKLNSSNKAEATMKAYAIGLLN
Source text: We sought to obtain further insights into the mechanism of QscR modulation by non-native AHLs. […] We therefore performed electromobility shift assays (EMSA) on purified QscR and radiolabeled PA1897 promoter in the presence of selected QscR antagonists and 1.

TraR = biological target: T3, TraR (Agrobacterium tumefaciens, UniProt P33905); test: cell-based; conditions: for Activation (%) / Inhibition (%): A. tumefaciens-TraR; for Activation (%): Library C primary agonism screen; for Inhibition (%): Library C primary antagonism screen; for A. tumefaciens-TraR Activation [%]: 10 μM ligand; for A. tumefaciens-TraR Inhibition [%]: 10 μM synthetic ligand against 100 nM OOHL; for IC50: determined against 100 nM OOHL, read-out: TraR IC50
T3 construct: These strains lack their AHL synthase (I) genes, but retain their native R genes; endogenous in cells; host or cells: A. tumefaciens WCF47 (Δ-traI) with PtraI-lacZ plasmid pCF372
T3 sequence (P33905 whole entry): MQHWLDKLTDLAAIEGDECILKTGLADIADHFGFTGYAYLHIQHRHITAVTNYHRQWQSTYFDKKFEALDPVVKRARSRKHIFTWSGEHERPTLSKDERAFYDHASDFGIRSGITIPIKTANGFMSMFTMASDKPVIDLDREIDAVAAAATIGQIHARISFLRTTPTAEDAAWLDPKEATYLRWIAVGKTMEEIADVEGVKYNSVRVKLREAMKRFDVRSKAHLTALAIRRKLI

LasR [7] = biological target: T2, LasR; test: cell-based; type: cell-based; conditions: for Inhibition (%): E. coli-LasR, Library C primary antagonism screen; for E. coli-LasR Inhibition [%]: 5 μM synthetic ligand against 7.5 nM OdDHL
How it was run: as §3

LuxR [8] = biological target: T4, LuxR (Aliivibrio fischeri, UniProt P12746); test: LuxR luminescence antagonism and agonism assays in E. coli JM109 (pSB401); type: cell-based, Vibrio fischeri; conditions: EC50 of autoinducer in E. coli JM109 (pSB401)
T4 construct: expressed in transfected cells; host or cells: E. coli JM109 (pSB401)
T4 sequence (P12746 whole entry): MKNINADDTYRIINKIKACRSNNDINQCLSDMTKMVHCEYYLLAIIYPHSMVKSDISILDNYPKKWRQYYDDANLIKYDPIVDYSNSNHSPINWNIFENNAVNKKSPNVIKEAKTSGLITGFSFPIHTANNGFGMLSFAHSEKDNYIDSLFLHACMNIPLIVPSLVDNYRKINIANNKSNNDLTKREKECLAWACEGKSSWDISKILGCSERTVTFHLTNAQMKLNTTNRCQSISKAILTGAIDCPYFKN
Protocol: Competitive inhibition assays were performed in the presence of both OHHL and PHLs 11 (at a 1:1 ratio), while agonism assays were performed with PHLs alone.
Luminescence assays. For agonism assays, an appropriate amount of AHL stock solution was added into a 96-well plate. […] A 200-μL portion of the diluted culture was added to each well of the plate. […] Luminescence was measured using a multilabel plate reader and normalized to cell density. […] All assays were performed in triplicate. Graphpad Prism software was used to calculate IC50 and EC50 values.
E. coli assay procedures. […] An overnight culture of E. coli JM109 (pSB401) was diluted 1:10 with LB medium (containing 10 μg/mL tetracycline). A 200-μL portion of the diluted culture was added to each well of the plate. Plates were grown at 30° C. with shaking (200 rpm) until the OD600=0.35-0.4 (6-8 h). Luminescence then was measured and normalized to cell density per well. […] All assays were performed in triplicate.

elastase B production = test: microbe, parasite or virus in culture; type: cell-based, Pseudomonas aeruginosa; conditions: P. aeruginosa PAO1; 200 μM
Protocol: Elastase B production assay in P. aeruginosa. Elastase B activity in P. aeruginosa was measured according to a previously reported method, with the following modifications. P. aeruginosa PAO1 was grown overnight in LB media at 37° C., after which it was diluted to an OD600=0.1. Portions (2 mL) of this culture was added to test tubes containing synthetic compounds to give final concentrations of 20 μM or 200 μM and incubated for 12-14 h at 37° C. with 200 rpm shaking. The OD600 was measured for each tube, after which the contents of the tubes were filtered through a […] Whatman filter to remove all cellular matter. A 100 μL-aliquot of the supernatant was added to 900 μL of an Elastin Congo Red Solution (5 mg of Elastin Congo red substrate per 1 mL of 100 mM Tris-HCl, 1 mM CaCl2 (pH 7.2)) and incubated for 12 h at 37° C. with 250 rpm shaking. The contents of these tubes were then filtered in order to remove unreacted Elastin Congo red substrate. Elastase B activity was then calculated (normalized) by dividing the absorbance of the cleaved Congo red (OD492) by the cell density (OD600 of the cells before first filtration).
Elastase B production assay in P. aeruginosa. Elastase B activity in P. aeruginosa was measured according to a previously reported method, with the following modifications. P. aeruginosa PAO1 was grown overnight at 37° C. and then diluted 1:10 with fresh LB medium. Portions (2 mL) of this culture were added to test tubes containing synthetic compounds to give final compound concentrations of 20 μM or 200 μM. The tubes were incubated for 12-14 h at 37° C. The OD600 was measured for each tube, after which the contents of the tubes were filtered through a 0.2 μm Whatman filter to remove all cellular matter. A 100 μL aliquot of the supernatant was added to 900 μL of an elastin-Congo red solution (5 mg of elastin-Congo red substrate per 1 mL of buffer (100 mM Tris-HCl, 1 mM CaCl2, pH 7.2)) and incubated for 12 h at 37° C. with 250 rpm shaking. The contents of these tubes were then filtered in order to remove unreacted elastin-Congo red substrate, and the supernatant containing cleaved Congo red was isolated. A 200 μL aliquot of the supernatant was added to a 96-well multititer plate, and the OD492 was measured. Elastase B activity was calculated by dividing the absorbance of the cleaved Congo red solution (OD492) by the cell density (OD600 of the cells before first filtration).

[9] = V. fischeri ES114 (Δ-luxI), normalized to OHHL
[10] = A. tumefaciens WCF47 (pCF372), normalized to OOHL
[11] = E. coli DH5α (pJN105L pSC11), normalized to OdDHL

O=C(Cc1cccc([N+](=O)[O-])c1)N[C@H]1CCOC1=O [11n, N-(3-nitro-phenylacetanoyl)-L-homoserine lactone]
activity in wild-type V. fischeri [1]: similarly heightened activity
luminescence / activity in Δ-luxR derivative of V. fischeri ES114 [2]: Neither 11n nor OHHL induced any detectable luminescence
V. fischeri-LuxR Inhibition [%] (LuxR [3]; [9]): no inhibitory activity
EC50 lower / activity higher relative to OHHL (LuxR [4]; LuxR): 10 fold
EC50 (LuxR [4]): 300 nM
luminescence induced higher than native ligand OHHL (LuxR [4]; primary agonism assay, 200 μM, same concentration as OHHL): 29%
activation at 200 µM (LuxR [4]): ≥ 60%
activity / modulation of quorum sensing in vivo (Euprymna scolopes squid): active in vivo
tolerance in squid / invertebrate model systems (Euprymna scolopes squid): well tolerated

CCOc1ccc(CC(=O)N[C@H]2CCOC2=O)cc1 [C25]
Activation (%) (LasR [5]): 0%
inhibition of OdDHL-dependent QscR:DNA binding [6]: capable of inhibiting OdDHL (1)-dependent QscR:DNA binding
Activation (%) (TraR): 0%
Inhibition (%) (TraR): 35%
Inhibition (%) (LasR [7]): 15%
Inhibition (%) (LuxR [3]): 55%
Activation (%) (LuxR [4]): 2%

CCCC(=O)CC(=O)N[C@H]1CCOC1=O [compound 3, N-(3-oxo-hexanoyl)-L-homoserine lactone, reference compound]
EC50 (LuxR [8]): ~10 nM and 20 nM
EC50 (LuxR [4]): 3000 nM and ~5000 nM

O=C(CCCc1c[nH]c2ccccc12)N[C@H]1CCOC1=O [compound 9, indole AHL, reference compound]
A. tumefaciens-TraR Activation [%] (TraR; [10]): 0%
elastase B production inhibition (elastase B production): 66%

N-(phenylbutanoyl)-L-homoserine lactone [compound 6, reference compound]
E. coli-LasR Activation [%] (LasR [5]; [11]): 3%
A. tumefaciens-TraR Activation [%] (TraR; [10]): 2%
A. tumefaciens-TraR Inhibition [%] (TraR; [10]): 93%
IC50 (TraR): 1120 nM
E. coli-LasR Inhibition [%] (LasR [7]; [11]): ~25% and ~20%
V. fischeri-LuxR Inhibition [%] (LuxR [3]; [9]): 70%
V. fischeri-LuxR Activation [%] (LuxR [4]): 3%

O=C(Cc1ccc(C(F)(F)F)cc1)N[C@H]1CCOC1=O [C20, 4-trifluoromethyl PHL]
Activation (%) (LasR [5]): 0%
Activation (%) (TraR): 2%
Inhibition (%) (TraR): 92%
IC50 (TraR): 810 nM
Inhibition (%) (LasR [7]): 26%
Inhibition (%) (LuxR [3]): 78%
Activation (%) (LuxR [4]): 3%

CCOC(=O)/C=C/C(=O)N[C@H]1CCOC1=O [A20]
E. coli-LasR Activation [%] (LasR [5]; [11]): 0%
A. tumefaciens-TraR Activation [%] (TraR; [10]): 0%
A. tumefaciens-TraR Inhibition [%] (TraR; [10]): 3%
E. coli-LasR Inhibition [%] (LasR [7]; [11]): 13%
V. fischeri-LuxR Inhibition [%] (LuxR [3]; [9]): 37%
V. fischeri-LuxR Activation [%] (LuxR [4]): 1%

CCCCCCCC(=O)N[C@H]1CCOC1=O [A3, C8 AHL]
activation at 5 µM (LasR [5]; read-out: E. coli-LasR Activation [%], 5 μM ligand, E. coli DH5α (pJN105L pSC11), normalized to OdDHL): 1%
IC50 (TraR): 770 nM
activation at 10 µM (TraR; read-out: A. tumefaciens-TraR Activation [%]): 7%
inhibition at 10 µM (TraR; read-out: A. tumefaciens-TraR Inhibition [%], 10 μM synthetic ligand against 100 nM OOHL, A. tumefaciens WCF47 (pCF372), normalized to OOHL): 83%
E. coli-LasR Inhibition [%] (LasR [7]; [11]): 43%
IC50 (LasR [7]; determined against 7.5 nM OdDHL, read-out: LasR IC50): 1750 nM
inhibition at 5 µM (LasR [7]; read-out: E. coli-LasR Inhibition [%], 5 μM synthetic ligand against 7.5 nM OdDHL, E. coli DH5α (pJN105L pSC11), normalized to OdDHL): ≥ 50%
IC50 (LuxR [3]; LuxR IC50, determined against 5 μM OHHL): 770 nM
inhibition at 5 µM (LuxR [3]; read-out: V. fischeri-LuxR Inhibition [%], 5 μM synthetic ligand against 5 μM OHHL, V. fischeri ES114 (Δ-luxI), normalized to OHHL): 86%
activation at 200 µM (LuxR [4]): 12%

2-aminophenol analog of OdDHL [compound 7, reference compound]
E. coli-LasR Activation [%] (LasR [5]; [11]): 18%
A. tumefaciens-TraR Activation [%] (TraR; [10]): 0%
A. tumefaciens-TraR Inhibition [%] (TraR; [10]): 9%
E. coli-LasR Inhibition [%] (LasR [7]; [11]): 4%
V. fischeri-LuxR Inhibition [%] (LuxR [3]; [9]): 3%
V. fischeri-LuxR Activation [%] (LuxR [4]): 1%
